The source of these data is publication PMC7650794, “Pharmacological Modulation of Blood–Brain Barrier Permeability by Kinin Analogs in Normal and Pathologic Conditions” (Pharmaceuticals, 2020).

The target of data set [1] is T1, human B2R (Homo sapiens, UniProt P30411).
T1 construct: expressed in transfected cells; host or cells: QBI HEK 293A cells, lentiviral transduction with pCDH-BDKRB2, puromycin selection
T1 sequence (P30411 1-391): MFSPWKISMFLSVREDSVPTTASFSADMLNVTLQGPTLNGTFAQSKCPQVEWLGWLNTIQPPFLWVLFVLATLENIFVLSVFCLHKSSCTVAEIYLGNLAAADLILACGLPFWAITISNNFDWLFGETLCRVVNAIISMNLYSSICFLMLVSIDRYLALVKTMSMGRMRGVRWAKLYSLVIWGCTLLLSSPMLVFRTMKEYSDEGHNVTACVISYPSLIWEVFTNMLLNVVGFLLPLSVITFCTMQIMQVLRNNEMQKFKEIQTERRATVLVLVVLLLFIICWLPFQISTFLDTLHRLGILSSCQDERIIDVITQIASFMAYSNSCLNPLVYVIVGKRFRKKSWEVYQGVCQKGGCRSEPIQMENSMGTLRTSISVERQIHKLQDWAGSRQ
Description: IP-One accumulation assay, human B2R-HEK293 cells. It is filed as cell-based. Conditions: IP1 accumulation, 30 min, room temperature, pH 7.4, 50 mM LiCl, human B2R-HEK293, 15,000 cells per well; mean of two independent experiments performed in duplicates; read-out: IP1 Assays (EC50; nM). How it is done:
The IP-One assay was performed on living, adherent human B2R-HEK293 cells according to the manufacturer’s recommendations (Cisbio, #62IPAPEB, Bedford, MA, USA). […] IP1-d2 and anti-IP1-Cryptate were added for at least 1 h. Fluorescence signal was measured using a Tecan M1000 plate reader (excitation at 320 nm and emission at 620 and 665 nm). EC50 values were calculated by curve-fitting using GraphPad Prism 8.2.

Data set [2] has as its system BBB, normal and focal-irradiated dog brains. To be noted: in vivo, iv; cited from earlier work. An excerpt:
Radiation therapy is part of the standard treatment paradigm for CNS tumors. The short-term effects of prior radiotherapy on the BBB opening induced by Labradimil have been investigated in normal and focal-irradiated dog brains. […] In this study, we focused on late post-radiotherapy complications leading to radionecrosis (Figure 4), which c ...

Data set [3] relates to angiotensin-converting enzyme (ACE, alias kininase II). Conditions: cited from earlier work.
The target of data set [4] is T1, human B2R. As to the kind of experiment: Radioligand displacement binding assay, [3H]BK, human B2R-HEK293 cells. To be noted: displacement of 1 nM [3H]BK, living adherent HEK293 cells stably expressing human B2R, serum-free DMEM, 1.5 h, 4 °C; mean of two independent experiments performed in duplicates. As for the experimental part:
The pCDH-BDKRB2 vector was produced from the plasmid pcDNA3.1/human BDKRB2 by PCR amplification using the primers 5′-[…]-3′ and 5′-[…]-3′, and introduced into pCDH-CMV-MCS-EF1 vector using BamHI et XbaI restriction sites. Lentiviruses were produced from pCDH-BDKRB2 vector in HEK293T cells using the X-tremeGENE HP transfection reagent (Millipore-Sigma, Oakville, ON, Canada). Lentiviruses were harvested 48 h post-transfection and used to infect QBI HEK 293A cells (ATCC). Transduced cells were selected using 5 µg/mL of puromycin (Thermo Fisher, Burlington, On, Canada).
Radioligand displacement binding assays were performed as we previously described, with slight modifications. HEK293 cells stably expressing human B2R were used for these assays (see text above). […] Radioactivity of samples was measured by a β-scintillation counter (PerkinElmer, Woodbridge, On, Canada). Binding affinities of peptides were expressed in terms of IC50 values—the molar concentration of an unlabeled agonist causing 50% displacement of specific binding (GraphPad Prism 8.2).
For orientation: In a radioligand displacement assay an active substance lowers the binding of a labelled ligand.

Molecules are shown by their SMILES. Non-standard residues stand in square brackets, D forms with d. Residues, ends and D or L forms follow the SMILES beside them. *: point of attachment. X1 = COc1ccc(C[C@@H](CN[C@@H](CCCNC(=N)N)C(=O)O)N*)cc1; Hyp = O=C(O)[C@@H]1C[C@@H](O)CN1; 2Thi = N[C@@H](Cc1cccs1)C(=O)O

The term EC50 denotes the midpoint of the concentration-response curve. In general, IC50 refers to the concentration that gives 50% inhibition. Take `COc1ccc(C[C@@H](CN[C@@H](CCCNC(=N)N)C(=O)O)NC(=O)[C@@H]2CCCN2C(=O)[C@H](CO)NC(=O)[C@H](Cc2cccs2)NC(=O)CNC(=O)[C@@H]2C[C@@H](O)CN2C(=O)[C@@H]2CCCN2C(=O)[C@@H](N)CCCNC(=N)N)cc1` [Labradimil, [Hyp^3, Thi^5, (^4Me)Tyr^8(ΨCH2NH)Arg^9]-BK] (H-RP[Hyp]G[2Thi]SP-X1): the EC50 in data set [1] was determined as 47 nM. Moreover, in data set [2], the “vasogenic edema associated with focal radiation injury” value is listed as “not exacerbating the vasogenic edema associated with focal radiation injury”. Moreover, the “protection against enzymatic degradation by ACE” value in data set [3] is on record as “fully protected against enzymatic degradation by the angiotensin-converting enzyme”. In data set [4], this compound had an IC50 of 17 nM.
